Laboratory results published in article PMC9719525, “Design of MMP-1 inhibitors via SAR transfer and experimental validation” (Scientific Reports, 2022).

Legend:
[1] = biological target: T1, matrix metalloproteinase 1 (MMP-1) (Homo sapiens, UniProt P03956); assay: colorimetric MMP-1 enzyme assay; compound previously reported (ref […]), resynthesized here; type: biochemical; conditions: cited from earlier work
T1 construct: gene MMP1
T1 sequence (P03956 100-469): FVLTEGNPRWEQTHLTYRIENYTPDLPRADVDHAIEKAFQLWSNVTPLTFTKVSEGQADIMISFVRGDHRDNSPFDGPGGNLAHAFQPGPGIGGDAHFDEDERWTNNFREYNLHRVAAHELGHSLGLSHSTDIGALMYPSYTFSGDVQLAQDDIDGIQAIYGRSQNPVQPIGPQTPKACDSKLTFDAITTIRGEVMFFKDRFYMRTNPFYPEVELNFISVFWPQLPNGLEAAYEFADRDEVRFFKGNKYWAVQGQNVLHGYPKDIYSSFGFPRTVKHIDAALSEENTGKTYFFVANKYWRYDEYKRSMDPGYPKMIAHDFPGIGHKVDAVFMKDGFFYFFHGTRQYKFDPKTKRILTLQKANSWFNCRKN

[2] = biological target: T1, matrix metalloproteinase 1 (MMP-1); assay: colorimetric MMP-1 enzyme assay (ENZ BML-AK404-0001 kit, A412nm); type: biochemical

Row | IC50 ([2]; read-out: IC50 (μM)^a) [µM] | SMILES | also measured
1 |  | C[C@H](C(=O)NO)N1CC[C@@](C)(c2ccc(C(F)(F)F)cc2)C1=O [compound 4] | IC50 [1]: 0.12 ± 0.01 µM
2 |  | COc1ccc([C@]2(C)CCN([C@H](C)C(=O)NO)C2=O)cc1 [compound 5, (R)-N-hydroxy-2-((S)-3-(4-methoxyphenyl)-3-methyl-2-oxopyrrolidin-1-yl)propenamide] | IC50 [2]: 0.36 ± 0.04 µM
3 | 0.034 ± 0.026 | C[C@H](C(=O)NO)N1CC[C@@](C)(c2ccc(Cl)cc2)C1=O [compound 6, (R)-N-hydroxy-2-((S)-3-(4-chlorophenyl)-3-methyl-2-oxopyrrolidin-1-yl)propenamide] | 
4 | 0.5 ± 0.023 | Cc1ccc([C@]2(C)CCN([C@H](C)C(=O)NO)C2=O)cc1 [compound 7, (R)-N-hydroxy-2-((S)-3-(p-tolyl)-3-methyl-2-oxopyrrolidin-1-yl)propenamide] | 
